The text below walks through data of patent US10196364B2, “Pyrimidine carboxamides as sodium channel blockers” (Purdue Pharma L.P., priority 2013, dated 2019).

Assay [1] relates to SNL-induced mechanical hyperalgesia. The assay is described as follows: SNL-induced mechanical hyperalgesia model in rats (paw pressure test, PWT). The format is in vivo, rat. Particulars: dosed orally at 100 mg/kg (vehicle: 0.5% methyl cellulose) one hour before testing. Here is the method:
Each experiment uses rats weighing between 200-260 g at the start of the experiment. The rats are group-housed and have free access to food and water at all times, except prior to oral administration of a test compound when food is removed for 16 h before dosing. A control group acts as a comparison to rats treated with a Compound of the Disclosure. The control group is administered the carrier as used for the test compound. The volume of carrier administered to the control group is the same as the volume of carrier and test compound administered to the test group. In the Chung model, the spinal nerve ligation (SNL) model of neuropathic pain is used to produce mechanical hyperalgesia, thermal hyperalgesia, and tactile allodynia in rats. Surgery is performed under isoflurane/O2 inhalation anesthesia. Following induction of anesthesia a 3 cm incision is made and the left paraspinal muscles are separated from the spinous process at the L4-S2 levels. The L6 transverse process is carefully removed with a pair of small rongeurs to identify visually the L4-L6 spinal nerves. […] The animals are assessed for response to noxious mechanical stimuli by determining PWT, as described below, prior to surgery (baseline), then immediately prior to and 1, 3, and 5 hours after being administered a Compound of the Disclosure or vehicle, for the left rear paw of the animal. The animals can also be assessed for response to noxious thermal stimuli or for tactile allodynia, as described below. […] Sensitivity to noxious mechanical stimuli was measured in animals using the paw pressure test to assess mechanical hyperalgesia. In rats, hind paw withdrawal thresholds (“PWT”), measured in grams, in response to a noxious mechanical stimulus were determined using an analgesymeter (Model 7200, commercially available from Ugo Basile of Italy), as described in Stein (Biochemistry & Behavior 31: 451-455 (1988)). […] PWT was determined once for each rat at each time point. PWT can be measured only in the injured paw, or in both the injured and non-injured paw. […]

The target of the next assay is hNav1.7 (Homo sapiens, UniProt Q15858). The assay is described as follows: Electrophysiology (EP) whole-cell patch clamp assay in hNav1.7 expressing HEK-293 cells. It counts as cell-based. The conditions noted are these: Table 7; affinity for inactivated channels; read-out: Nav1.7 Activity (μM) EP assay Ki. Here is the method: The hNav1.7 expressing HEK-293 cells were plated on 35 mm culture dishes pre-coated with poly-D-lysine in standard DMEM culture media (Mediatech, Inc., Herndon, Va.) and incubated in a 5% CO2 incubator at 37° C. Cultured cells were used approximately 12-48 h after plating.
On the day of experimentation, the 35 mm dish was placed on the stage of an inverted microscope equipped with a perfusion system that continuously perfuses the culture dish with fresh recording media. A gravity driven superfusion system was used to apply test solutions directly to the cell under evaluation. This system consists of an array of glass pipette glass connected to a motorized horizontal translator. The outlet of the shooter was positioned approximately 100 μm from the cell of interest.
Whole cell currents were recorded using the whole-cell patch clamp configuration using an Axopatch 200B amplifier (Axon Instruments, Foster City Calif.), 1322A A/D converter (Axon Instruments) and pClamp software (v. 8; Axon Instruments) and stored on a personal computer. Gigaseals were formed and the whole-cell configuration was established in voltage clamp mode, and membrane currents generated by hNav1.7 were recorded in gap-free mode. Borosilicate glass pipettes have resistance values between 1.5 and 2.0 MΩ when filled with pipette solution and series resistance (<5 MΩ) was compensated 75-80%. Signals were sampled at 50 kHz and low pass filtered at 3 kHz.
After establishing the whole-cell configuration in voltage clamp mode, two voltage protocols were run to establish: 1) the holding potential; and 2) the test potential for each cell.
To determine a membrane potential at which the majority of channels are in the resting state, a standard steady-state inactivation (SSIN) protocol was run using 100 ms prepulses×10 mV depolarizing steps. The holding potential for testing resting block (Vh1) was 20 mV more hyperpolarized than the first potential where inactivation is observed with the inactivation protocol.
From this holding potential a standard I-V protocol was run to determine the potential at which the maximal current (Imax) was elicited. This potential was the test potential (Vt).
The compound testing protocol was a series of 10 ms depolarizations from the Vh1 (determined from the SSIN) to the Vt (determined from the I-V protocol) repeated every 10-15 seconds. […] Washout of the compound was attempted by superfusing with control solution once steady-state block was observed. The fractional response was calculated as follows: FR=I(after drug)/I(control), where I is the peak current amplitude and was used for estimating resting block dissociation constant, Kr: Kr=[drug]*{FR/(1−FR)}, where [drug] is the concentration of a drug.
To assess the block of inactivated channels the holding potential was depolarized such that 20-50% of the current amplitude was reduced when pulsed to the same Vt as above. The magnitude of this depolarization depends upon the initial current amplitude and the rate of current loss due to slow inactivation. This was the second holding potential (Vh2). The current reduction was recorded to determine the fraction of available channels at this potential (h). h=I@Vh2/Imax.
At this membrane voltage a proportion of channels are in the inactivated state, and thus inhibition by a blocker includes interaction with both resting and inactivated channels.
To determine the potency of the test compound on inactivated channels, a series of currents were elicited by 10 ms voltage steps from Vh2 to Vt every 10-15 seconds. After establishing a stable baseline, the low concentration of the compound was applied. Multiple cumulative concentrations may have to be applied to identify a concentration that will block between 40-60% of the current. Washout was attempted to re-establish baseline. Fractional responses were measured with respect to a projected baseline to determine Kapp. Kapp=[drug]*{FR/(1−FR)}, where [drug] is the concentration of a drug. […]

The target in another assay is human Nav1.7 (Homo sapiens, UniProt Q15858). The assay is described as follows: FLIPR membrane potential dye assay (alternative fluorescence assay) in Nav1.7 expressing cells. The format is cell-based. The conditions noted are these: Table 7.
The next assay addresses Nav1.3 (Homo sapiens, UniProt Q9NY46). Particulars: read-out: TTX IC50; cited from earlier work.
Another assay concerns the target Nav1.8 (Homo sapiens, UniProt Q9Y5Y9). Particulars: read-out: TTX IC50; cited from earlier work.

Sequence of human Nav1.7 (Q15858 1-1977 isoform Q15858-3): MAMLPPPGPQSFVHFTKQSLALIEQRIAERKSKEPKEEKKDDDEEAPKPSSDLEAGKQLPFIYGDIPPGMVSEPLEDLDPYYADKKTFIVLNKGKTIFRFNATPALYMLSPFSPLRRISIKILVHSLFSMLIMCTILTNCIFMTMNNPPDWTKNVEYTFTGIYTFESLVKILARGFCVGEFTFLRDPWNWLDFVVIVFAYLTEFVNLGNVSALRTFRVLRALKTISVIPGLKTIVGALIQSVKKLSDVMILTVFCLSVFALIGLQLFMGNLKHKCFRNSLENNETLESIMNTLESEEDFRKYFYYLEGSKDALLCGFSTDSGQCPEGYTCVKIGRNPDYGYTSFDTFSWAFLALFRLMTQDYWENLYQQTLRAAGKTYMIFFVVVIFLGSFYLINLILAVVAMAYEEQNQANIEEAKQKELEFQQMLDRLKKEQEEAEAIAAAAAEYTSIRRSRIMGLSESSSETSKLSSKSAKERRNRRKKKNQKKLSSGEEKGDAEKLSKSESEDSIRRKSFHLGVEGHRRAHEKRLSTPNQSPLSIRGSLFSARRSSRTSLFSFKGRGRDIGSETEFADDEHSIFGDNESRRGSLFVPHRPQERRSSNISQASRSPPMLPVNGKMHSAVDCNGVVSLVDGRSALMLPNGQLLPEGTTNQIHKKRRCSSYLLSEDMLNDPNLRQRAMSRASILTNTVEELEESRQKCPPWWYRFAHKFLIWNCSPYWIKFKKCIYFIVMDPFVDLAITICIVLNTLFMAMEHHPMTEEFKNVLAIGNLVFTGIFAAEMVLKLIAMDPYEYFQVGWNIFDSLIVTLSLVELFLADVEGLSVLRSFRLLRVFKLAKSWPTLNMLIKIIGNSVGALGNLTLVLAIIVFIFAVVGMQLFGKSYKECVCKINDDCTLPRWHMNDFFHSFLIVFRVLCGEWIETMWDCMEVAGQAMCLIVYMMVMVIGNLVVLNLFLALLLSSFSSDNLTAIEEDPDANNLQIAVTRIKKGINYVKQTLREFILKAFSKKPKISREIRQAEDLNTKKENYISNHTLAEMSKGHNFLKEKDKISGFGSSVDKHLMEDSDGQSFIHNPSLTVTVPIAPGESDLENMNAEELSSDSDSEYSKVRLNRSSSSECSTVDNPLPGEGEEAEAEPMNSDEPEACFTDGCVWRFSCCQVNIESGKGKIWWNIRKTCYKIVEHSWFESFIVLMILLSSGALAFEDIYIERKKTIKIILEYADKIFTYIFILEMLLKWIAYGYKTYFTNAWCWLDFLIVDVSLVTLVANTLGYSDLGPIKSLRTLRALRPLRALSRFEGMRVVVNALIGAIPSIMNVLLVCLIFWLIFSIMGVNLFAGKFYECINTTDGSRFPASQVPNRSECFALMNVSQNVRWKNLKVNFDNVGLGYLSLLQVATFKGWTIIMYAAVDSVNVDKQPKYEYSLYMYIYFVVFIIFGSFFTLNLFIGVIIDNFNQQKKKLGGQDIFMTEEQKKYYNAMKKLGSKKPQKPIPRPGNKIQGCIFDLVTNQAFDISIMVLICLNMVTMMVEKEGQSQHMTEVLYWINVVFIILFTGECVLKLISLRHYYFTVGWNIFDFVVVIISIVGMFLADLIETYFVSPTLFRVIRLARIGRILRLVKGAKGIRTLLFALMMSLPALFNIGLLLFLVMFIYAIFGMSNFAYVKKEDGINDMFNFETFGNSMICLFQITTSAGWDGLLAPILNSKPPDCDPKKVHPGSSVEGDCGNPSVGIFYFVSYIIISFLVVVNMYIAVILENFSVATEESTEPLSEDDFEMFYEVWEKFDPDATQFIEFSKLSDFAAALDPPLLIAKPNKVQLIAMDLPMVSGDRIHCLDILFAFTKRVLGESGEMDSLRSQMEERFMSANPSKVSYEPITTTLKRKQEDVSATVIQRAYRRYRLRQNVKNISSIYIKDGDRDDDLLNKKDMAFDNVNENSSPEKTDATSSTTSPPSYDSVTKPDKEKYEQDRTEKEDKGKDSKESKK
Sequence of hNav1.7 (Q15858 1-1977 isoform Q15858-3): as above
Sequence of Nav1.8 (Q9Y5Y9 whole entry, looked up): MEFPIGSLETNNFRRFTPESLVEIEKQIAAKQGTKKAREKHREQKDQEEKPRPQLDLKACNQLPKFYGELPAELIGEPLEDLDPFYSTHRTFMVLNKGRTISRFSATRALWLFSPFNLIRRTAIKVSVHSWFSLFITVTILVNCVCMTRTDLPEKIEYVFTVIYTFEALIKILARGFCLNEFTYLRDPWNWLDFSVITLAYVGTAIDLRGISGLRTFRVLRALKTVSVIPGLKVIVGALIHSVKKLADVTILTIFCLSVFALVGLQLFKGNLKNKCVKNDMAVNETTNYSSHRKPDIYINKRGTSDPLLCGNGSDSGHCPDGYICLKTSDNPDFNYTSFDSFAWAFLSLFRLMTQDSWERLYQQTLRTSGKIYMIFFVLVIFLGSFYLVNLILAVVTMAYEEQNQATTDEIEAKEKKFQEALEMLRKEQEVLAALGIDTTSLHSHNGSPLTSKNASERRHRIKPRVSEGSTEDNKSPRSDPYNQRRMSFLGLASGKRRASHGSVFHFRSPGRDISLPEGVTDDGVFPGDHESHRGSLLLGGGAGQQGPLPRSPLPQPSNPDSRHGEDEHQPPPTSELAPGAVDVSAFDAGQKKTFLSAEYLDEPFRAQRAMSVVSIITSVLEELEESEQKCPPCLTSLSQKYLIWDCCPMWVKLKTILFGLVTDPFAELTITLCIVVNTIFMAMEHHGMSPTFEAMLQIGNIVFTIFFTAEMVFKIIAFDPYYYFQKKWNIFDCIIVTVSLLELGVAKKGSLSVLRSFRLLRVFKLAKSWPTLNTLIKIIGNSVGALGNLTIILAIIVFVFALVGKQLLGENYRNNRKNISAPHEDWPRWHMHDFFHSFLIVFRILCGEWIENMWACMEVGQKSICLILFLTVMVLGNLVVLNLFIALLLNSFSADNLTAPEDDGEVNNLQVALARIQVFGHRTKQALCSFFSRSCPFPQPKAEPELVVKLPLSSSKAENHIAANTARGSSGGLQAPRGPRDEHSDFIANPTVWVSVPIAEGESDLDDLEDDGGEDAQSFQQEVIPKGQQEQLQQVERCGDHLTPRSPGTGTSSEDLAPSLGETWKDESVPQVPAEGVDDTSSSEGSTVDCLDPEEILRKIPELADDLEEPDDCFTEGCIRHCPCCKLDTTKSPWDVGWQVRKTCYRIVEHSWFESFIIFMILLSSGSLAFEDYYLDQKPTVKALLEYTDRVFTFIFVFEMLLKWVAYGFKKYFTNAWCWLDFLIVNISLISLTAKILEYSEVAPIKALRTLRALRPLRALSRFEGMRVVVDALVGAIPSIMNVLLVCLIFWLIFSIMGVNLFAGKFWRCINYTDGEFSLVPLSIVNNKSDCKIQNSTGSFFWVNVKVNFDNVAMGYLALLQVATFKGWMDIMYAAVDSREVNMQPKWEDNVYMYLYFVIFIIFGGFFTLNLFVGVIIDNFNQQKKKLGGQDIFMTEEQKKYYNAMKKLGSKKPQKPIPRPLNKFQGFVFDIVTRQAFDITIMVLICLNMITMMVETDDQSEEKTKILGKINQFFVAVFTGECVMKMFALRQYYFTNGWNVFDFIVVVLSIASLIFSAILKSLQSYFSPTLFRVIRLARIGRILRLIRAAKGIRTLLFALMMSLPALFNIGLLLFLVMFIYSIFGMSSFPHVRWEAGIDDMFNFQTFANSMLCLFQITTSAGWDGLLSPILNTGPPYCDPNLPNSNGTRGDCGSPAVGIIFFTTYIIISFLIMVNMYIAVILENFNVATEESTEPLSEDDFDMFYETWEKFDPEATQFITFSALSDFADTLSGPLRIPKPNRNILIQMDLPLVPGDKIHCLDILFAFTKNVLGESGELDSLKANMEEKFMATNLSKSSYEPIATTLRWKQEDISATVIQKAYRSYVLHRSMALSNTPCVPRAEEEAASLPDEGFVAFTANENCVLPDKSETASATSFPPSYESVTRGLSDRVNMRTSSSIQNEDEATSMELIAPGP

In the case of `C[C@H](Nc1cc(C(N)=O)nc(-c2ccc(Oc3ccc(OC(F)(F)F)cc3)cc2)n1)C(N)=O` [Cpd No. 84, (S)-6-((1-amino-1-oxopropan-2-yl)amino)-2-(4-(4-(trifluoromethoxy)phenoxy)phenyl)pyrimidine-4-carboxamide], in assay [1], the “SNL-induced mechanical hyperalgesia in rats” value was “reduced SNL-induced mechanical hyperalgesia”.

As for `CCN(CC)Cc1cc(C(F)(F)F)ccc1Oc1ccc(-c2nc(N[C@H](C)C(N)=O)cc(C(N)=O)n2)cc1` [Cpd No. 215, (R)-6-((1-amino-1-oxopropan-2-yl)amino)-2-(4-(2-((diethylamino)methyl)-4-(trifluoromethyl)phenoxy)phenyl)pyrimidine-4-carboxamide], at hNav1.7, the Ki was 1.39 µM. Further, it took 7.35 µM to reach half-maximal inhibition at human Nav1.7 (IC50).

Take `NC(=O)c1cc(O[C@H]2CCNC2=O)nc(N2[C@@H]3CC[C@H]2C[C@@H](Oc2ccc(C(F)(F)F)cn2)C3)n1` [Cpd No. 224, 6-(((S)-2-oxopyrrolidin-3-yl)oxy)-2-((1R,3S,5S)-3-((5-(trifluoromethyl)pyridin-2-yl)oxy)-8-azabicyclo[3.2.1]octan-8-yl)pyrimidine-4-carboxamide]: on hNav1.7, the Ki was 0.81 µM. The IC50 on human Nav1.7 was 1.01 µM.

Take `C[C@H](Nc1cc(C(N)=O)nc(N2CC[C@@H](Oc3ccc(C(F)(F)F)cc3)C2)n1)C(N)=O` [Cpd No. 226, 6-(((S)-1-amino-1-oxopropan-2-yl)amino)-2-((R)-3-(4-(trifluoromethyl)-phenoxy)pyrrolidin-1-yl)pyrimidine-4-carboxamide]: at human Nav1.7, the IC50 amounted to 3.23 µM.

On to `NC(=O)c1cc(O[C@H]2CCNC2=O)nc(-c2ccc(Oc3ccc(C(F)(F)F)cn3)cc2)n1` [Cpd No. 227, (S)-6-((2-oxopyrrolidin-3-yl)oxy)-2-(4-((5-(trifluoro-methyl)pyridin-2-yl)oxy)phenyl)pyrimidine-4-carboxamide], for which the Ki at hNav1.7 turned out to be 0.15 µM. Besides, at human Nav1.7, the midpoint of inhibition, the IC50, lay at 0.55 µM.

In the case of `C[C@H](Nc1cc(C(N)=O)nc(-c2ccc(Cc3ccc(C(F)(F)F)cn3)cc2)n1)C(N)=O` [Cpd No. 228, (S)-6-((1-amino-1-oxopropan-2-yl)amino)-2-(4-((5-(trifluoro-methyl)pyridin-2-yl)methyl)-phenyl)pyrimidine-4-carboxamide], at hNav1.7, the Ki turned out to be 1.1 µM. This compound returned an IC50 on human Nav1.7 of 1.1 µM.

As to `NC(=O)c1cc(O[C@H]2CCNC2=O)nc(-c2ccc(Cc3ccc(C(F)(F)F)cn3)cc2)n1` [Cpd No. 229, (S)-6-((2-oxopyrrolidin-3-yl)oxy)-2-(4-((5-(trifluoromethyl)pyridin-2-yl)methyl)phenyl)pyrimidine-4-carboxamide], the Ki at hNav1.7 came to 0.62 µM. Also, the IC50 on human Nav1.7 amounted to 0.58 µM.

As for `NC(=O)c1cc(O[C@H]2CCNC2=O)nc(-c2ccc(Oc3ccc(C(F)(F)F)cc3CN3CCCC3)cc2)n1` [Cpd No. 230, (S)-6-((2-oxopyrrolidin-3-yl)oxy)-2-(4-(2-(pyrrolidin-1-ylmethyl)-4-(trifluoromethyl)-phenoxy)phenyl)pyrimidine-4-carboxamide], the Ki at hNav1.7 is 0.74 µM. The same compound had an IC50 against human Nav1.7 of 1.72 µM.

With `NC(=O)c1cc(O[C@H]2CCNC2=O)nc(-c2ccc(Oc3ccc(C(F)(F)F)cc3)cc2CN2CCCCC2)n1` [Cpd No. 231, (S)-6-((2-oxopyrrolidin-3-yl)oxy)-2-(2-(piperidin-1-ylmethyl)-4-(4-(trifluoromethyl)-phenoxy)phenyl)pyrimidine-4-carboxamide], the IC50 against human Nav1.7 was > 20 µM.

`NC(=O)c1cc(O[C@H]2CCNC2=O)nc(-c2ccc(Oc3ccc(C(F)(F)F)cc3)cc2CN2CCOCC2)n1` [Cpd No. 232, (S)-2-(2-(morpholinomethyl)-4-(4-(trifluoromethyl)-phenoxy)phenyl)-6-((2-oxopyrrolidin-3-yl)oxy)-pyrimidine-4-carboxamide]: the IC50 against human Nav1.7 is 10 to 20 µM.

Regarding `Cn1cc(COc2ccc(-c3nc(N[C@H]4CCNC4=O)cc(C(N)=O)n3)cc2)cn1` [Cpd No. 233, (S)-2-(4-((1-methyl-1H-pyrazol-4-yl)methoxy)phenyl)-6-((2-oxopyrrolidin-3-yl)amino)-pyrimidine-4-carboxamide], on human Nav1.7, the half-maximal inhibitory concentration (IC50) lay within 10 to 20 µM.

Consider `NC(=O)c1cc(O[C@H]2CCNC2=O)nc(-c2ccc(Oc3ccc(C4CC4)cn3)cc2)n1` [Cpd No. 234, (S)-2-(4-((5-cyclopropylpyridin-2-yl)oxy)phenyl)-6-((2-oxopyrrolidin-3-yl)oxy)-pyrimidine-4-carboxamide], for which, at hNav1.7, the Ki is 0.67 µM. For the same compound, at human Nav1.7, the IC50 came to 1.2 µM.

As to `NC1=N[C@H](O)[C@H]2[C@H]3O[C@]4(O)O[C@@H]([C@@H](O)[C@@]2(N1)[C@@H]4O)[C@]3(O)CO` [TTX, tetrodotoxin], the IC50 at Nav1.3 was 0.015 µM; at Nav1.8 it was 50 µM.

Regarding `C[C@H](Oc1cc(C(N)=O)nc(-c2ccc(Oc3ccc(C(F)(F)F)cc3)cc2)n1)C(N)=O` [compound 98], the “SNL-induced mechanical hyperalgesia in rats” value in assay [1] is “reduced SNL-induced mechanical hyperalgesia”.

Take `NC(=O)c1cc(N[C@H]2CCNC2=O)nc(-c2ccc(Oc3ccc(C(F)(F)F)cn3)cc2)n1` [compound 99, (S)-6-((2-oxopyrrolidin-3-yl)amino)-2-(4-((5-(trifluoromethyl)pyridin-2-yl)oxy)phenyl)pyrimidine-4-carboxamide]: the “SNL-induced mechanical hyperalgesia in rats” value in assay [1] was “reduced SNL-induced mechanical hyperalgesia”.

As usually defined, the IC50 is the point on the concentration scale where inhibition reaches its midpoint.
